Measurements reported in patent US8889881B2, “Compound having skin-whitening, anti-oxidizing and PPAR activities and medical use therefor” (Pusan National University Industry —University Cooperation …, priority 2011, dated 2014).

How the values were obtained:
[1] = system: Mushroom-derived tyrosinase; experiment: Tyrosinase inhibitory effect; assay type: biochemical; conditions: 1 mM L-tyrosin, pH 6.5, 25° C., 30 minutes, OD492; positive control kojic acid; FIGS. 3 and 4
Description: Mushroom-derived tyrosinase was sued as an enzyme source in the present experiment. Tyrosinase activities were assayed according to a slightly-modified conventionally known method (Life Sci., 1999, 65, 241-246). In detail, 20 μl of a mushroom-derived tyrosinase (1000 units) aqueous solution was added to 96-well microplate (Nunc, Denmark) to prepare 200 μl of the total volume of assay mixture containing 1 mM L-tyrosin solution and 50 mM phosphate buffer solution (pH 6.5). The assay mixture was cultured at a temperature of 25° C. for 30 minutes.

[2] = system: YPEN-1 cells (rat prostatic endothelial cell line); experiment: In vitro ROS scavenging activity assay (DCFDA); assay type: cell-based; conditions: cells pre-treated with 50 μM SIN-1 for 1 hour; DCFDA fluorescence; positive control trolox; FIGS. 1 and 2
Description: YPEN-1 cells (rat prostatic endothelial cell line) was obtained from American type culture collection (ATCC, Manassas, Va., USA), and the cells were cultured by using a dulbecco's modified eagle medium (DMEM, Nissui, Tokyo, Japan) containing 2 mM L-glutamine, […], 2.5 mg/L amphotericin B, and 5% inactivated fetal bovine serum (FBS). Also, the cells were maintained at a temperature of 37° C. in a humid atmosphere-like condition containing 5% CO2 and 95% air. […] The cells were sub-cultured in 100 mm plastic flask (Corning Co., New York, USA) every two days to maintain the cell line.
2′,7′-dichlorodihydrofluorescein diacetate (DCFDA) assay method according to a conventionally known method (Chem Res Toxicol. 5: 227-231, 1992) was used. In detail, 12.5 mM DCFDA dissolved in 99.9% ethanol and 600 U/ml esterase dissolved in tertiary distilled water were stored as a stock solution at a temperature of −20° C., and a 2′,7′-dichlorodihydrofluorescein (DCFH) solution prepared by mixing 10 mM DCFDA and 6 U/ml esterase was cultured at a temperature of 22° C. for 20 minutes, and then, refrigerated in a dark place before use. […] Vascular endothelial cells that were pre-treated with 50 μM 3-morpholinosydnonimine hydrochloride (SIN-1) for 1 hour were used as a reactive oxygen generation source.

PPAR alpha-LBD = molecular target: T1, PPAR alpha-LBD (Homo sapiens, UniProt Q07869); experiment: PPAR assay, PPARα; conditions: for PPARα activation (competitive activation rate), compared with fenofibrate: sample final concentration 100 μM, positive control fenofibrate, FIGS. 5 and 6; for simultaneous activation of PPARα and PPARγ: summary of the PPARα and PPARγ assays, sample 100 μM
T1 sequence (Q07869 239-466 limits assumed): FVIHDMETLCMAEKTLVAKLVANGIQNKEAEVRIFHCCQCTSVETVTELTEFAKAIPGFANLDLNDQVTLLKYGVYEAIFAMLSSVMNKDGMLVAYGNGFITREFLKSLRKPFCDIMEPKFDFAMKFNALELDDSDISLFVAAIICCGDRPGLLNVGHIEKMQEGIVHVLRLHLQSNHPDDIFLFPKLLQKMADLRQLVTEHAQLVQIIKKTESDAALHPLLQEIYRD

PPAR gamma-LBD = molecular target: T2, PPAR gamma-LBD (Homo sapiens, UniProt P37231); experiment: PPAR assay, PPARγ; assay type: binding; conditions: sample final concentration 100 μM; positive control rosiglitazone; FIGS. 7 and 8
T2 sequence (P37231 238-503 limits assumed): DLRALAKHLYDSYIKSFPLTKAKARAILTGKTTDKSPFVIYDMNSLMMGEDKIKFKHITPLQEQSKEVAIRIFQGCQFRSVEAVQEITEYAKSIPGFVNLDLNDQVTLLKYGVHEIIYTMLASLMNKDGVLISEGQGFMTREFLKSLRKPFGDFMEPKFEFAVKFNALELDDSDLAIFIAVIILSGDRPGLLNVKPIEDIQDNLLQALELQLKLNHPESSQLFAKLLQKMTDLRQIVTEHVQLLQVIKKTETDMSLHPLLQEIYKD

Structure (SMILES) | melting point | simultaneous activation of PPARα and PPARγ (PPAR alpha-LBD) | tyrosinase inhibitory activities, compared with kojic acid [1] | scavenging effects on ROS generated by vascular endothelial cells, compared with trolox [2] | PPARα activation (competitive activation rate), compared with fenofibrate (PPAR alpha-LBD) | PPARγ activation (competitive activation rate), compared with rosiglitazone (PPAR gamma-LBD)
O=C(O)c1csc(-c2ccc(O)cc2O)n1 [Compound 101, 2-(2,4-Dihydroxyphenyl)thiazole-4-carboxylic acid] | – | – | better tyrosinase inhibitory activities than a kojic acid | – | – | –
Oc1ccc(-c2nc3ccccc3s2)c(O)c1 [Compound 15, 4-(benzo[d]thiazol-2-yl)benzene-1,3-diol] | – | – | better tyrosinase inhibitory activities than a kojic acid | – | – | –
O=C(O)[C@@H]1CSC(c2ccc(O)cc2O)N1 (mixture of isomers) [Compound 3, (2R/S,4R)-2-(2,4-dihydroxyphenyl)thiazolidine-4-carboxylic acid] | – | – | better tyrosinase inhibitory activities than a kojic acid | – | – | –
COc1ccc(C2N[C@H](C(=O)O)CS2)c(OC)c1 (mixture of isomers) [Compound 9, (2R/S,4R)-2-(2,4-dimethoxyphenyl)thiazolidine-4-carboxylic acid] | 137.7 to 139.2 °C | – | better tyrosinase inhibitory activities than a kojic acid | – | – | –
Oc1ccc(-c2nc3ccccc3[nH]2)c(O)c1 [Compound 45, 4-(1H-benzo[d]imidazol-2-yl)benzene-1,3-diol] | – | simultaneously activates PPARα and PPARγ | better tyrosinase inhibitory activities than a kojic acid | – | very excellent PPARα activation agent compared to fenofibrate | very excellent PPARγ activation agent compared to rosiglitazone
COc1cc(-c2nc3ccccc3[nH]2)cc(OC)c1O [Compound 55, 4-(1H-benzo[d]imidazol-2-yl)-2,6-dimethoxyphenol] | – | simultaneously activates PPARα and PPARγ | better tyrosinase inhibitory activities than a kojic acid | – | very excellent PPARα activation agent compared to fenofibrate | very excellent PPARγ activation agent compared to rosiglitazone
Oc1ccc(C2Nc3cc(C(F)(F)F)ccc3S2)cc1Br (stereo not shown) [Compound 119, 2-bromo-4-(5-(trifluoromethyl)-2,3-dihydrobenzo[d]thiazol-2-yl)phenol] | – | simultaneously activates PPARα and PPARγ | – | as high scavenging effects on ROS generated by vascular endothelial cells as trolox | very excellent PPARα activation agent compared to fenofibrate | very excellent PPARγ activation agent compared to rosiglitazone

Second part, led by results:

melting point | simultaneous activation of PPARα and PPARγ (PPAR alpha-LBD) | Structure (SMILES) | tyrosinase inhibitory activities, compared with kojic acid [1] | scavenging effects on ROS generated by vascular endothelial cells, compared with trolox [2] | PPARα activation (competitive activation rate), compared with fenofibrate (PPAR alpha-LBD) | PPARγ activation (competitive activation rate), compared with rosiglitazone (PPAR gamma-LBD)
155.8 to 158.6 °C | simultaneously activates PPARα and PPARγ | COc1cc(C2Nc3cc(Cl)ccc3S2)cc(OC)c1O (stereo not shown) [Compound 94, 4-(5-chloro-2,3-dihydrobenzo[d]thiazol-2-yl)-2,6-dimethoxyphenol] | better tyrosinase inhibitory activities than a kojic acid | as high scavenging effects on ROS generated by vascular endothelial cells as trolox | very excellent PPARα activation agent compared to fenofibrate | very excellent PPARγ activation agent compared to rosiglitazone
– | simultaneously activates PPARα and PPARγ | CC(C)(Oc1ccc(-c2nc3cc(Cl)ccc3s2)cc1)C(=O)O [Compound 99, 2-(4-(5-chlorobenzo[d]thiazol-2-yl)phenoxy)-2-methylpropanoic acid] | better tyrosinase inhibitory activities than a kojic acid | – | very excellent PPARα activation agent compared to fenofibrate | very excellent PPARγ activation agent compared to rosiglitazone
259.3 to 263.1 °C | – | Oc1ccc(-c2nc3cc(Cl)ccc3s2)cc1 [Compound 82, 4-(5-chlorobenzo[d]thiazol-2-yl)phenol] | better tyrosinase inhibitory activities than a kojic acid | – | – | –
127.4 to 129.1 °C | – | Oc1ccc(-c2nc3cc(Cl)ccc3s2)cc1O [Compound 83, 4-(5-chlorobenzo[d]thiazol-2-yl)benzene-1,2-diol] | better tyrosinase inhibitory activities than a kojic acid | as high scavenging effects on ROS generated by vascular endothelial cells as trolox | – | –
– | simultaneously activates PPARα and PPARγ | Oc1ccc(-c2nc3ccccc3s2)cc1 [Compound 13, 4-(benzo[d]thiazol-2-yl)phenol] | better tyrosinase inhibitory activities than a kojic acid | – | very excellent PPARα activation agent compared to fenofibrate | very excellent PPARγ activation agent compared to rosiglitazone
268.5 to 269.8 °C | simultaneously activates PPARα and PPARγ | Oc1ccc(-c2nc3ccccc3[nH]2)cc1O [Compound 44, 4-(1H-benzo[d]imidazol-2-yl)benzene-1,2-diol] | – | as high scavenging effects on ROS generated by vascular endothelial cells as trolox | very excellent PPARα activation agent compared to fenofibrate | very excellent PPARγ activation agent compared to rosiglitazone
236.2 to 238.2 °C | – | Oc1ccc(-c2nc3cc(C(F)(F)F)ccc3s2)c(O)c1 [Compound 30, 4-(5-(trifluoromethyl)benzo[d]thiazol-2-yl)benzene-1,3-diol] | better tyrosinase inhibitory activities than a kojic acid | – | – | –
